Patent publication US20060115815A1 (priority 2002, published 2006)

Tests used:
GS-7340 Ester Hydrolase = biological target: T1, GS-7340 Ester Hydrolase (Homo sapiens, UniProt P10619); experiment: biochemical; conditions: read-out: IC50 (μM) GS-7340 Ester Hydrolase
T1 construct: from tissue; host or cells: human peripheral blood mononuclear cells (extract and column pools)

[1] = biological target: porcine liver carboxylesterase (PLCE) (Sus scrofa, UniProt Q29550); experiment: biochemical; conditions: read-out: Relative Activity (%)
[2] = biological target: human leukocyte elastase (huLE) (Homo sapiens, UniProt P08246); conditions: 10 µM
[3] = test system: mutant HIV-1 with I84V/L90M mutations in the protease gene; type: cell-based; conditions: fold difference in EC50, mutant vs. wild type
WT HIV-1 = experiment: microbe, parasite or virus in culture; type: cell-based; conditions: Human immunodeficiency virus 1, read-out: EC50 [nM] WT HIV-1
[4] = test system: recombinant HIV-1 strains with resistance mutations in the protease gene; experiment: Cross-resistance profile assay, whole panel of mutant viruses; type: cell-based; conditions: {}
[5] = test system: recombinant HIV-1 strain, protease 46I/84A
[6] = test system: recombinant HIV-1 strain, protease 10I/48V/54V/82A
[7] = test system: recombinant HIV-1 strain, protease 46I/47V/50V
[8] = test system: recombinant HIV-1 strain, protease 10R/46I/82T/84V
[9] = test system: recombinant HIV-1 strain, protease 30N/50S/82I/88D
[10] = test system: recombinant HIV-1 strain, protease 54V/71V/82S
[11] = test system: recombinant HIV-1 strain, protease 10F/46I/71V/82T/90M
[12] = test system: recombinant HIV-1 strain, protease 10I/48V/71V/82A/90M
[13] = test system: recombinant HIV-1 strain, protease 48V/54V/71V/82S
[14] = biological target: recombinant HIV-1 protease (Human immunodeficiency virus type 1 group M subtype B, UniProt P04585); experiment: biochemical; type: biochemical; conditions: Ki (pM), class symbols, Table 10
in vitro = conditions: human

porcine liver carboxylesterase (PLCE), sequence (Q29550 19-566): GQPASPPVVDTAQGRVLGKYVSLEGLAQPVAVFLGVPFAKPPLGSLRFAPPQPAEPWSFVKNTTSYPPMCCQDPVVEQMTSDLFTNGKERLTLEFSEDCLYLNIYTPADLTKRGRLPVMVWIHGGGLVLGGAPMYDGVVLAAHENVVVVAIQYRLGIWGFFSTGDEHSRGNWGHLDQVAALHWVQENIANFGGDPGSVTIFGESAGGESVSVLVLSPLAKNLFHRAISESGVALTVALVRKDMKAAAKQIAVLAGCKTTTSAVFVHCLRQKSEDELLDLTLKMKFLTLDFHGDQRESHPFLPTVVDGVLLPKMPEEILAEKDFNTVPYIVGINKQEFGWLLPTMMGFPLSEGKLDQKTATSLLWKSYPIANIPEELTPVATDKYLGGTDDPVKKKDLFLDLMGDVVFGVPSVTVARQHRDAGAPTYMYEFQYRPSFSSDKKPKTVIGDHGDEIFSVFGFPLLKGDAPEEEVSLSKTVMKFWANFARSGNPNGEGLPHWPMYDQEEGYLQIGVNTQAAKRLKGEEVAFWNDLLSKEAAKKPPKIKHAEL
human leukocyte elastase (huLE), sequence (P08246 30-267): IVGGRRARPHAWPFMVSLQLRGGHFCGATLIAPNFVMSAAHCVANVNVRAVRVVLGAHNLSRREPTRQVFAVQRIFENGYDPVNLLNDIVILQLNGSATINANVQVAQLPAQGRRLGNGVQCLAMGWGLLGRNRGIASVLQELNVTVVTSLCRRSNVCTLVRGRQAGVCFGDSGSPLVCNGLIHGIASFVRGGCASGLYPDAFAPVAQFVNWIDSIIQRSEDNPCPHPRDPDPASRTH
T1 sequence (P10619 29-326 limits assumed): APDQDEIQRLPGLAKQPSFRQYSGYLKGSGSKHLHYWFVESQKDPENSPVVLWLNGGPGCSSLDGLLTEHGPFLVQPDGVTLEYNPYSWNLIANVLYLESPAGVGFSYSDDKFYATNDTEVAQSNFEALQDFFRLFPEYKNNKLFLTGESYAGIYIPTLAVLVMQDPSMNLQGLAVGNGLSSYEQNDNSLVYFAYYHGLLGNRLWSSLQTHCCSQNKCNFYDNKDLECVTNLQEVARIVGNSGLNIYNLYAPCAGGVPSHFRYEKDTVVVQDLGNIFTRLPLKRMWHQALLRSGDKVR
T1 sequence (P10619 327-480 limits assumed): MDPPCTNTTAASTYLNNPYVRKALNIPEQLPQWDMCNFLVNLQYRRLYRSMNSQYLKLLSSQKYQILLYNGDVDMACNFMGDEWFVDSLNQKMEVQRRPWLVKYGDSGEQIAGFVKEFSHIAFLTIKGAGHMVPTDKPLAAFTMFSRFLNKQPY

O=c1oc(Cl)c(Cl)c2ccccc12 [3,4-dichloroisocoumarin]
IC50 (GS-7340 Ester Hydrolase): 4 µM | activity at 1 µM [1]: 100% | activity at 10 µM [1]: 100% | activity at 100 µM [1]: 90% | activity at 1000 µM [1]: 20% | Relative Activity (%) [2]: 25%

CCC[C@@]1(CCc2ccccc2)CC(O)=C([C@H](CC)c2cccc(NS(=O)(=O)c3ccc(C(F)(F)F)cn3)c2)C(=O)O1 [Tipranavir]
I84V/L90M fold change [3]: + (>3 to ≦10) | EC50 (WT HIV-1): 80 nM | Total No. of Resistant Viruses [4]: 1 | Fold Change in EC50 Relative to WT HIV-1 [5]: 1 | Fold Change in EC50 Relative to WT HIV-1 [6]: 0.4 | Fold Change in EC50 Relative to WT HIV-1 [7]: 0.5 | Fold Change in EC50 Relative to WT HIV-1 [8]: 5 | Fold Change in EC50 Relative to WT HIV-1 [9]: 0.5 | Fold Change in EC50 Relative to WT HIV-1 [10]: 3.5 | Fold Change in EC50 Relative to WT HIV-1 [11]: 3 | Fold Change in EC50 Relative to WT HIV-1 [12]: 0.3 | Fold Change in EC50 Relative to WT HIV-1 [13]: 2

CCOC(=O)C(C)OP(=O)(COc1ccc(CC(NC(=O)OC2COC3OCCC23)C(O)CN(CC(C)C)S(=O)(=O)c2ccc(OC)cc2)cc1)Oc1ccccc1 (centres unmarked) [drawing 658 R1=OPh R2=Lac-Et]
Ki [14]: 10 to 100 pM | CC50 at 5 days (in vitro): 5000 to 50000 nM
